Where two headings read alike, the source gives them in different places.
How the values were obtained:
Type in all cases: cell-based
RS4;11-BCL-2 G101V cells = test: Cell proliferation assay (MTS), RS4;11-BCL-2 G101V engineered cells; settings: 120 h, read-out: RS4, 11 BCL2-G101V IC50
Procedure, shortened: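 Cells were plated, allowed to settle 4 h (G101V, F104L) or 24 h (D103E, D103Y), and treated with serially diluted compound (10000 down to 1.5 nM). After 120 h or 72 h respectively at 37 °C, MTS was added for 2 h and absorbance at 490 nm gave IC50 values.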

RS4;11-BCL-2 F104L cells = test: Cell proliferation assay (MTS), RS4;11-BCL-2 F104L engineered cells; settings: 120 h, read-out: RS4, 11 BCL2-F104L IC50
Excerpt: MTS testing kit was purchased from Promega (Madison, WI, USA). The RPMI-1640, Fetal bovine serum and Penicillin-Streptomycin were purchased from BI (Biological Industries, Beit Haemek, Israel). Puromycin was purchased from Beyotime (shanghai, China). Dimethyl sulfoxide (DMSO) was purchased from Sigma (St. Louis., MO, USA). RS4;11-BCL-2 G101V (Cobioer Lot. #: CBD2021063013P4), RS4;11-BCL-2 D103E (Cobioer Lot. #: CBD2021063013P4), RS4;11-BCL-2 D103Y (Cobioer Lot. #: CBD2022012101P4) and RS4;11-BCL-2 F104L (Cobioer Lot. #: CBD2021063014P4) cells were cultured in RPMI1640 supplemented with 1 ug/mL puromycin, 100 U/mL Penicillin-Streptomycin and 10% FBS.
To investigate whether a compound is able to inhibit the activity of BCL-2 mutation in cells, a mechanism-based assay using engineered cell lines stably overexpressing BCL-2 mutation (RS4;11-BCL-2 G101V, RS4;11-BCL-2 D103E, RS4;11-BCL-2 D103Y, and RS4;11-BCL-2 F104L) was developed. In this assay, the inhibition of BCL-2 mutation was reflected by the inhibition of cell proliferation of engineered RS4;11 cells. Cells were plated into 96-well plates at optimized cell density (RS4;11-BCL-2 G101V: 5000 cells/well; RS4;11-BCL-2 D103E: 7500 cells/well; RS4;11-BCL-2 D103Y: 7500 cells/well; RS4;11-BCL-2 F104L: 5000 cells/well). Plates were incubated at 37° C., with 5% CO2 for 4 h (RS4;11-BCL-2 G101V, RS4;11-BCL-2 F104L) and 24 h (RS4;11-BCL-2 D103E, RS4;11-BCL-2 D103Y), respectively. Compounds were serially diluted and added to the plates with the final concentrations of 10000, 3333.3, 1111.1, 370.4, 123.5, 41.2, 13.7, 4.6 and 1.5 nM. Plates were incubated at 37° C., with 5% CO2 for 120 h (RS4; 11-BCL-2 G101V, RS4; 11-BCL-2 F104L) and 72 h (RS4;11-BCL-2 D103E, RS4;11-BCL-2 D103Y), respectively. 20 μl MTS was added into each well and the plates were incubated at 37° C., with 5% CO2 exactly for 2 h. The absorbance was measured by a microplate reader at 490 nm. IC50 values were calculated using GraphPad Prism 8.0 software.

Toledo cells = test: Cell proliferation assay (MTS), Toledo cells; settings: 72 h
Procedure, shortened: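 Toledo cells (RPMI-1640, 10% FBS) seeded at 30000 cells/well, rested 4 h, then exposed 72 h at 37 °C, 5% CO2 to compound at nine final concentrations, 1.5–10000 nM. Viability by MTS (2 h), absorbance at 490 nm. IC50 from the concentration-response.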

SMILES	IC50 (RS4;11-BCL-2 G101V cells; Homo sapiens) [nM]	IC50 (RS4;11-BCL-2 F104L cells; Homo sapiens) [nM]	IC50 (RS4;11-BCL-2 G101V cells) [nM]	IC50 (RS4;11-BCL-2 F104L cells) [nM]	IC50 (Toledo cells; Homo sapiens) [nM]	IC50 (Toledo cells) [nM]
CCOc1nc2[nH]cc(F)c2cc1Oc1cc(N2CCC3(CC2)CC(N2CCN(Cc4ccc(C5CC5)c(OC)c4)C[C@H]2c2ccccc2C(C)C)C3)ccc1C(=O)NS(=O)(=O)c1cnc(NC[C@H]2CC[C@](C)(O)CC2)c([N+](=O)[O-])c1 [Example 6, 4-(2-((R)-4-(4-cyclopropyl-3-methoxybenzyl)-2-(2-isopropylphenyl)piperazin-1-yl)-7-azaspiro[3.5]nonan-7-yl)-2-((6-ethoxy-3-fluoro-1H-pyrrolo[2,3-b]pyridin-5-yl)oxy)-N-((6-((((1r,4r)-4-hydroxy-4-methylcyclohexyl)methyl)amino)-5-nitropyridin-3-yl)sulfonyl)benzamide]	1	1	–	–	1	–
CCOc1nc2[nH]cc(F)c2cc1Oc1cc(N2CCC3(CC2)CC(N2CCN(Cc4ccc(OC)c5oc(C)cc45)C[C@H]2c2ccccc2C(C)C)C3)ccc1C(=O)NS(=O)(=O)c1cnc(NC[C@H]2CC[C@](C)(O)CC2)c([N+](=O)[O-])c1 [Example 14, 2-((6-ethoxy-3-fluoro-1H-pyrrolo[2,3-b]pyridin-5-yl)oxy)-N-((6-((((1r,4r)-4-hydroxy-4-methylcyclohexyl)methyl)amino)-5-nitropyridin-3-yl)sulfonyl)-4-(2-((R)-2-(2-isopropylphenyl)-4-((7-methoxy-2-methylbenzofuran-4-yl)methyl)piperazin-1-yl)-7-azaspiro[3.5]nonan-7-yl)benzamide]	1	1	–	–	1	–
COc1nc2[nH]cc(F)c2cc1Oc1cc(N2CCC3(CC2)CC(N2CCOC[C@H]2c2ccccc2C(C)C)C3)ccc1C(=O)NS(=O)(=O)c1cnc(NC[C@H]2CC[C@](C)(O)CC2)c([N+](=O)[O-])c1 [Example 87, 2-((3-fluoro-6-methoxy-1H-pyrrolo[2,3-b]pyridin-5-yl)oxy)-N-((6-((((1r,4r)-4-hydroxy-4-methylcyclohexyl)methyl)amino)-5-nitropyridin-3-yl)sulfonyl)-4-(2-((R)-3-(2-isopropylphenyl)morpholino)-7-azaspiro[3.5]nonan-7-yl)benzamide]	1	1	–	–	1	–
COc1nc2[nH]cc(F)c2cc1Oc1cc(N2CCC3(CC2)CC(N2CCC[C@H]2c2ccccc2C(C)C)C3)ccc1C(=O)NS(=O)(=O)c1cnc(NC[C@H]2CC[C@](C)(O)CC2)c([N+](=O)[O-])c1 [Example 89, 2-((3-fluoro-6-methoxy-1H-pyrrolo[2,3-b]pyridin-5-yl)oxy)-N-((6-((((1r,4r)-4-hydroxy-4-methylcyclohexyl)methyl)amino)-5-nitropyridin-3-yl)sulfonyl)-4-(2-((S)-2-(2-isopropylphenyl)pyrrolidin-1-yl)-7-azaspiro[3.5]nonan-7-yl)benzamide]	1	1	–	–	–	–
COc1ccc(CN2CCN(C3CC4(CCN(c5ccc(C(=O)NS(=O)(=O)c6cnc(NC[C@H]7CC[C@](C)(O)CC7)c([N+](=O)[O-])c6)c(Oc6cc7c(F)c[nH]c7nc6OC)c5)CC4)C3)[C@H](c3ccccc3C(C)C)C2)cc1F [Example 97, 4-(2-((R)-4-(3-fluoro-4-methoxybenzyl)-2-(2-isopropylphenyl)piperazin-1-yl)-7-azaspiro[3.5]nonan-7-yl)-2-((3-fluoro-6-methoxy-1H-pyrrolo[2,3-b]pyridin-5-yl)oxy)-N-((6-((((1r,4r)-4-hydroxy-4-methylcyclohexyl)methyl)amino)-5-nitropyridin-3-yl)sulfonyl)benzamide]	–	1	–	–	1	–
COc1cc(CN2CCN(C3CC4(CCN(c5ccc(C(=O)NS(=O)(=O)c6cnc(NC[C@H]7CC[C@](C)(O)CC7)c([N+](=O)[O-])c6)c(Oc6cc7c(F)c[nH]c7nc6OC)c5)CC4)C3)[C@H](c3ccccc3C(C)C)C2)cc2c1OCCC2 [Example 103, 2-((3-fluoro-6-methoxy-1H-pyrrolo[2,3-b]pyridin-5-yl)oxy)-N-((6-((((1r,4r)-4-hydroxy-4-methylcyclohexyl)methyl)amino)-5-nitropyridin-3-yl)sulfonyl)-4-(2-((R)-2-(2-isopropylphenyl)-4-((8-methoxychroman-6-yl)methyl)piperazin-1-yl)-7-azaspiro[3.5]nonan-7-yl)benzamide]	–	1	–	–	1	–
CC(C)c1ccccc1[C@@H]1CN(Cc2ccc(Cl)cc2)CCN1C1CC2(CCN(c3ccc(C(=O)NS(=O)(=O)c4cnc(NCC5CCC(C)(O)CC5)c([N+](=O)[O-])c4)c(Oc4cnc5[nH]cc(F)c5c4)c3)CC2)C1 (stereo partly drawn) [Example 229, 4-(2-((R)-4-(4-chlorobenzyl)-2-(2-isopropylphenyl)piperazin-1-yl)-7-azaspiro[3.5]nonan-7-yl)-2-((3-fluoro-1H-pyrrolo[2,3-b]pyridin-5-yl)oxy)-N-((6-((((1r,4r)-4-hydroxy-4-methylcyclohexyl)methyl)amino)-5-nitropyridin-3-yl)sulfonyl)benzamide]	–	–	1	1	–	1

More lines, main results first:

IC50 (RS4;11-BCL-2 G101V cells; Homo sapiens) [nM]	IC50 (RS4;11-BCL-2 F104L cells; Homo sapiens) [nM]	IC50 (RS4;11-BCL-2 G101V cells) [nM]	IC50 (RS4;11-BCL-2 F104L cells) [nM]	SMILES	IC50 (Toledo cells; Homo sapiens) [nM]	IC50 (Toledo cells) [nM]
1	1	–	–	CC(C)c1ccccc1[C@@H]1CN(Cc2ccc(F)cc2)CCN1C1CC2(CCN(c3ccc(C(=O)NS(=O)(=O)c4cnc(NC[C@H]5CC[C@](C)(O)CC5)c([N+](=O)[O-])c4)c(Oc4cnc5[nH]cc(F)c5c4)c3)CC2)C1 [Example 232, 2-((3-fluoro-1H-pyrrolo[2,3-b]pyridin-5-yl)oxy)-4-(2-((R)-4-(4-fluorobenzyl)-2-(2-isopropylphenyl)piperazin-1-yl)-7-azaspiro[3.5]nonan-7-yl)-N-((6-((((1r,4r)-4-hydroxy-4-methylcyclohexyl)methyl)amino)-5-nitropyridin-3-yl)sulfonyl)benzamide]	1	–
–	1	–	–	COc1nc2[nH]cc(F)c2cc1Oc1cc(N2CCC3(CC2)CC(N2CCN(Cc4ccc(S(C)(=N)=O)cc4)C[C@H]2c2ccccc2C(C)C)C3)ccc1C(=O)NS(=O)(=O)c1cnc(NC[C@H]2CC[C@](C)(O)CC2)c([N+](=O)[O-])c1 (stereo partly drawn) [Example 336, 2-((3-fluoro-6-methoxy-1H-pyrrolo[2,3-b]pyridin-5-yl)oxy)-N-((6-((((1r,4r)-4-hydroxy-4-methylcyclohexyl)methyl)amino)-5-nitropyridin-3-yl)sulfonyl)-4-(2-((2R)-2-(2-isopropylphenyl)-4-(4-(S-methylsulfonimidoyl)benzyl)piperazin-1-yl)-7-azaspiro[3.5]nonan-7-yl)benzamide]	1	–
–	3	–	–	COc1nc2[nH]cc(F)c2cc1Oc1cc(N2CCC3(CC2)CC(N2CCN(Cc4ccnc(Cl)c4)C[C@H]2c2ccccc2C(C)C)C3)ccc1C(=O)NS(=O)(=O)c1cnc(NC[C@H]2CC[C@](C)(O)CC2)c([N+](=O)[O-])c1 [Example 357, 4-(2-((R)-4-((2-chloropyridin-4-yl)methyl)-2-(2-isopropylphenyl)piperazin-1-yl)-7-azaspiro[3.5]nonan-7-yl)-2-((3-fluoro-6-methoxy-1H-pyrrolo[2,3-b]pyridin-5-yl)oxy)-N-((6-((((1r,4r)-4-hydroxy-4-methylcyclohexyl)methyl)amino)-5-nitropyridin-3-yl)sulfonyl)benzamide]	1	–

Source: patent publication US20250122191A1, “COMPOUNDS AS BCL-2 INHIBITORS” (Fochon Biosciences, Ltd, priority 2021, published 2025)
